Results: the kinase profiling compilation of Christmann-Franck et al. (2016)

Tests used:
Assay in all cases: KINOMEscan competition binding
Settings in all cases: compound 10.0 µM
[1] = target: TYK2 JH1 catalytic (human) (UniProt P29597)
TNK1 (human) = TNK1 (human) (UniProt Q13470)
MAPK8 (human) = MAPK8 (human) (UniProt P45983)
FGFR3 (human) = FGFR3 (human) (UniProt P22607)
NTRK3 (human) = NTRK3 (human) (UniProt Q16288)
TESK1 (human) = TESK1 (human) (UniProt Q15569)
MARK4 (human) = MARK4 (human) (UniProt Q96L34)
ITK (human) = ITK (human) (UniProt Q08881)
MAPK15 (human) = MAPK15 (human) (UniProt Q8TD08)
[2] = target: JAK2 JH1 catalytic (human) (UniProt O60674)
[3] = tested on: KIT (human), P10721 [D816V]
SIK1 (human) = SIK1 (human) (UniProt P57059)
ADCK4 (human) = ADCK4 (human) (UniProt Q96D53)
EPHA3 (human) = EPHA3 (human) (UniProt P29320)
RPS6KA5 KD1 (human) = RPS6KA5 KD1 (human) (UniProt O75582)
TEC (human) = TEC (human) (UniProt P42680)
MUSK (human) = MUSK (human) (UniProt O15146)
PRKCH (human) = PRKCH (human) (UniProt P24723)
[4] = tested on: ABL1 (human), P00519 [M351T]
TAOK3 (human) = TAOK3 (human) (UniProt Q9H2K8)
HCK (human) = HCK (human) (UniProt P08631)
PTK2B (human) = PTK2B (human) (UniProt Q14289)
LTK (human) = LTK (human) (UniProt P29376)
CDK19 (human) = CDK19 (human) (UniProt Q9BWU1)
SRPK2 (human) = SRPK2 (human) (UniProt P78362)
PHKG1 (human) = PHKG1 (human) (UniProt Q16816)
PRKG2 (human) = PRKG2 (human) (UniProt Q13237)
MYLK (human) = MYLK (human) (UniProt Q15746)
PAK4 (human) = PAK4 (human) (UniProt O96013)
MAP4K1 (human) = MAP4K1 (human) (UniProt Q92918)
MAP4K2 (human) = MAP4K2 (human) (UniProt Q12851)
DCLK3 (human) = DCLK3 (human) (UniProt Q9C098)
NLK (human) = NLK (human) (UniProt Q9UBE8)
FGFR1 (human) = FGFR1 (human) (UniProt P11362)
STK32B (human) = STK32B (human) (UniProt Q9NY57)
MYLK2 (human) = MYLK2 (human) (UniProt Q9H1R3)
MAP3K12 (human) = MAP3K12 (human) (UniProt Q12852)
PRKG1 (human) = PRKG1 (human) (UniProt Q13976)
AKT2 (human) = AKT2 (human) (UniProt P31751)
CAMK1D (human) = CAMK1D (human) (UniProt Q8IU85)

PHKG1 (human), sequence (Q16816 whole entry, looked up): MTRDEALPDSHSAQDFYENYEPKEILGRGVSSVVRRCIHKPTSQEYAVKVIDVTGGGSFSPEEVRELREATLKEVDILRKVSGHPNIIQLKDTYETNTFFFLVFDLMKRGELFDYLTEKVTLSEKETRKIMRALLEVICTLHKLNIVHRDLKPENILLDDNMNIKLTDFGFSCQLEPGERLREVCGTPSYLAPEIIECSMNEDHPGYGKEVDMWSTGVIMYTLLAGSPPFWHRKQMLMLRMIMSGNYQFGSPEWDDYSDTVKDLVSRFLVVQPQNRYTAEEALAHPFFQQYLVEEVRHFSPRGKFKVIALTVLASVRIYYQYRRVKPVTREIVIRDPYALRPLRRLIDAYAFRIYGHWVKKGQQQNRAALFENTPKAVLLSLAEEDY
DCLK3 (human), sequence (Q9C098 whole entry, looked up): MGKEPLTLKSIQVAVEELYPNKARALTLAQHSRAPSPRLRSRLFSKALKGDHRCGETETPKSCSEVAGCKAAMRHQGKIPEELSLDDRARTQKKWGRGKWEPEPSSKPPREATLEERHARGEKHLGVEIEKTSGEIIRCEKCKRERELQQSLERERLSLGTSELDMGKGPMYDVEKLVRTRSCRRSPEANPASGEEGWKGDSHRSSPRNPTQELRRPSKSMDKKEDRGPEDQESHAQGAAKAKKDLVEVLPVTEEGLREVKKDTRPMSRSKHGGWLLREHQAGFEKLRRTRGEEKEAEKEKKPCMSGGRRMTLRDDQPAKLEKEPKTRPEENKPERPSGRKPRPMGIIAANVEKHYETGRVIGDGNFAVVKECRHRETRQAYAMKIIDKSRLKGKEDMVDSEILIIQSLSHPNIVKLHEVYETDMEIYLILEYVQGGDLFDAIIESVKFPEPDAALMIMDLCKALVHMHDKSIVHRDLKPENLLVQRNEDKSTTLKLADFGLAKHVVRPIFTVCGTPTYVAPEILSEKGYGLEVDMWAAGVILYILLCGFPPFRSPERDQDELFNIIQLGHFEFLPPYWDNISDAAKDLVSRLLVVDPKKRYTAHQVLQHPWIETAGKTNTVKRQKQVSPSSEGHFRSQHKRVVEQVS
MAP4K1 (human), sequence (Q92918 whole entry, looked up): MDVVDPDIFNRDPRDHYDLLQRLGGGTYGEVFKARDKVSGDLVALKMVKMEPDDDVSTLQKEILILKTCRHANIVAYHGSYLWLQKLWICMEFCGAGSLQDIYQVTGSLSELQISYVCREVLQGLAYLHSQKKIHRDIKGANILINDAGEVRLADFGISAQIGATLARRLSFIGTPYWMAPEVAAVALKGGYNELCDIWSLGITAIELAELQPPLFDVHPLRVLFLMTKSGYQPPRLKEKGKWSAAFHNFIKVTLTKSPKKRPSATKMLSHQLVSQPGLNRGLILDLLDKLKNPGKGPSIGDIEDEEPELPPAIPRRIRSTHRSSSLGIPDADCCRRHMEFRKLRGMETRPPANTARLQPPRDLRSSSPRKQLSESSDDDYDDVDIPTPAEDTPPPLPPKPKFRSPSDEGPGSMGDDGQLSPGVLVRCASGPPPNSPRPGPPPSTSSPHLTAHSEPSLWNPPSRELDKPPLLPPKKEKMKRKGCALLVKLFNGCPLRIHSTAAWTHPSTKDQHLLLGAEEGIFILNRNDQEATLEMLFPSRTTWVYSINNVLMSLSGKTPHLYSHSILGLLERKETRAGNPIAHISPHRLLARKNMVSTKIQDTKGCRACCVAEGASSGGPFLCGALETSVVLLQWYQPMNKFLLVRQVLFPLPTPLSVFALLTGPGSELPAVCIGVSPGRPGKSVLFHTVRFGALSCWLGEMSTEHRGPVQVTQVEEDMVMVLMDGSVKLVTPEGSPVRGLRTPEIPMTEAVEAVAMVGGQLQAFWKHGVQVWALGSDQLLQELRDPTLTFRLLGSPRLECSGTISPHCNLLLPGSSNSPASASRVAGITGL
SRPK2 (human), sequence (P78362 whole entry, looked up): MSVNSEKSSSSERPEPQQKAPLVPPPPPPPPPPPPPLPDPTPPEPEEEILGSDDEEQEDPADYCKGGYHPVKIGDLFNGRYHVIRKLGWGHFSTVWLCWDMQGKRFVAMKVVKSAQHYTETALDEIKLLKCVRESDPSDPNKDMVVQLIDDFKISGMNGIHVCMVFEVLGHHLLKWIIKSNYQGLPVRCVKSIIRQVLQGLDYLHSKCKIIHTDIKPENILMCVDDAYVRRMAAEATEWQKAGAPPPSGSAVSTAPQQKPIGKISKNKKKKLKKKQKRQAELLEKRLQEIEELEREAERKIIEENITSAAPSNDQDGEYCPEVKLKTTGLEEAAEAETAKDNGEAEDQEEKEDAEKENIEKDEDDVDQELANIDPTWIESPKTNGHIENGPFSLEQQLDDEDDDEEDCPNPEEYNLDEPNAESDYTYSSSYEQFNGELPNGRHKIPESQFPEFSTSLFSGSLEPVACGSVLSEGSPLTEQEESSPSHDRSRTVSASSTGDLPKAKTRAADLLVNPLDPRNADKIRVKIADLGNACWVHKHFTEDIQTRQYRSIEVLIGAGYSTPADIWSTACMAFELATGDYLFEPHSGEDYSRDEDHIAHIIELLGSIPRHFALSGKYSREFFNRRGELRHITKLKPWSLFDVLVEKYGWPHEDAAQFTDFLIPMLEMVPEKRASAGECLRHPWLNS
FGFR3 (human), sequence (P22607 whole entry, looked up): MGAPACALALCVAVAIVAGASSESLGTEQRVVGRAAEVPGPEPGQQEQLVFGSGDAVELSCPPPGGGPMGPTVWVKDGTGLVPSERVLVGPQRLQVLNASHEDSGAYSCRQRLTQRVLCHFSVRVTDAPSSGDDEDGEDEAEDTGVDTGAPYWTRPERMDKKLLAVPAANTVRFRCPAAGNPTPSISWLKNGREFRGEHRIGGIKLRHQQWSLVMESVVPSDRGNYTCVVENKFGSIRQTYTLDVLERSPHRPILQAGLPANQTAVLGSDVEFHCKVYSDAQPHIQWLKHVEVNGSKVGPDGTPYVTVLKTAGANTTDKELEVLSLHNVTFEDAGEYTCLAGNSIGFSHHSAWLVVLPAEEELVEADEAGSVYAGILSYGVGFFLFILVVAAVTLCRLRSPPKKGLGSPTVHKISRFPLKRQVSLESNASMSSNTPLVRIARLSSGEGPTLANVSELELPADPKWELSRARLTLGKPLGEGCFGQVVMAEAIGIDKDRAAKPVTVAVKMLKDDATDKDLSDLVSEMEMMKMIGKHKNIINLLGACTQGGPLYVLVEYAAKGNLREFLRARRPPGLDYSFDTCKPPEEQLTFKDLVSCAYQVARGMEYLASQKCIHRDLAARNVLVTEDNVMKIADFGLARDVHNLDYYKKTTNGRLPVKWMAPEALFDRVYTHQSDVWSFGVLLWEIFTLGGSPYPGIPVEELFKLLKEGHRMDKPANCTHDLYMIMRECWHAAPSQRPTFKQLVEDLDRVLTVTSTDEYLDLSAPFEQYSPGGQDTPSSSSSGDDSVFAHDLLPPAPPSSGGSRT
STK32B (human), sequence (Q9NY57 whole entry, looked up): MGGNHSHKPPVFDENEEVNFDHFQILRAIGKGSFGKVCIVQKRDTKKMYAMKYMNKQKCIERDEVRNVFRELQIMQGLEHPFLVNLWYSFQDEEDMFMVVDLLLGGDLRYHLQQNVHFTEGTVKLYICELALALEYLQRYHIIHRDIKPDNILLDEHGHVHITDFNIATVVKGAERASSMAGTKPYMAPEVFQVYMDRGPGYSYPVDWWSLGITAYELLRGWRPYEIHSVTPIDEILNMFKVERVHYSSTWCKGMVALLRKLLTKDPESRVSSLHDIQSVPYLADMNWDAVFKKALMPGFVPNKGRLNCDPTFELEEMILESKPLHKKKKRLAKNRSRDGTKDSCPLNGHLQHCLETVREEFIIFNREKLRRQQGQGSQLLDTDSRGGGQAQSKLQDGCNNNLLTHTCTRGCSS
KIT (human), P10721 [D816V], sequence (P10721 whole entry D816V, looked up): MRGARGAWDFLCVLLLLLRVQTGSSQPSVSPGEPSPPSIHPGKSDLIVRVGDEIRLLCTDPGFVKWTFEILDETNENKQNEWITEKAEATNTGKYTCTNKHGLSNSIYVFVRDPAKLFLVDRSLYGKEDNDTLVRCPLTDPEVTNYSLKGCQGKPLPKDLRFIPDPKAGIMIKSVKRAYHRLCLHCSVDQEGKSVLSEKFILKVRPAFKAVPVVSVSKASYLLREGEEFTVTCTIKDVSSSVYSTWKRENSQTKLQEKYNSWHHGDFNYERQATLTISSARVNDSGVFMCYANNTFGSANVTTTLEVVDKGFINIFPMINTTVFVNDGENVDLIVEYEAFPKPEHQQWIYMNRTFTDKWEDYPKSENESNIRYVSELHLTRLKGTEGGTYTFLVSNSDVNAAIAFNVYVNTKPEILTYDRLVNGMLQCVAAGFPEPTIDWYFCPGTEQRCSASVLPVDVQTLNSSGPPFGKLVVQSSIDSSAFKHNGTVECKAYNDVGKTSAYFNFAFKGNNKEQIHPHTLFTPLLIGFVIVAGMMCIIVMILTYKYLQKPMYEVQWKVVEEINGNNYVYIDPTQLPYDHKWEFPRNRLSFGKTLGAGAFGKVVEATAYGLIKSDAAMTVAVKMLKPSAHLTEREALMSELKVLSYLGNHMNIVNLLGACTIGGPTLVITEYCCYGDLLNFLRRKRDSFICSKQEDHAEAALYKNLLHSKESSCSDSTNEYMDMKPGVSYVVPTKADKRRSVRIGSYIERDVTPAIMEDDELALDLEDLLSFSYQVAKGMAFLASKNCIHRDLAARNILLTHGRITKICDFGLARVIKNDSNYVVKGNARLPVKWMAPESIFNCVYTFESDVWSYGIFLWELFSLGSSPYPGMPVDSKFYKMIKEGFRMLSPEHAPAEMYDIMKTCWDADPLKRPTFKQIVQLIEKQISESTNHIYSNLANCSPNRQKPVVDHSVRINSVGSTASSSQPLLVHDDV

kinase still bound, per cent of control [1] | kinase still bound, per cent of control (TNK1 (human)) | kinase still bound, per cent of control (MAPK8 (human)) | kinase still bound, per cent of control (FGFR3 (human)) | kinase still bound, per cent of control (NTRK3 (human)) | kinase still bound, per cent of control (TESK1 (human)) | kinase still bound, per cent of control (MARK4 (human)) | kinase still bound, per cent of control (ITK (human)) | kinase still bound, per cent of control [2] | kinase still bound, per cent of control [3] | kinase still bound, per cent of control (SIK1 (human)) | kinase still bound, per cent of control (ADCK4 (human)) | kinase still bound, per cent of control (EPHA3 (human)) | kinase still bound, per cent of control (RPS6KA5 KD1 (human)) | kinase still bound, per cent of control (TEC (human)) | kinase still bound, per cent of control (MUSK (human)) | kinase still bound, per cent of control (PRKCH (human)) | kinase still bound, per cent of control [4] | kinase still bound, per cent of control (TAOK3 (human)) | SMILES | kinase still bound, per cent of control (MAPK15 (human)) | further results
100% | 1.8% | 17% | 100% | 100% | 100% | 16% | 0.55% | 100% | 13% | 100% | 100% | 100% | 100% | 6.6% | 100% | 100% | 100% | 100% | C=CC(=O)Nc1cccc(Oc2nc(Nc3ccc(N4CCN(C)CC4)cc3OC)ncc2Cl)c1 | 100% | kinase still bound, per cent of control (HCK (human)): 100%; kinase still bound, per cent of control (PTK2B (human)): 25%; kinase still bound, per cent of control (LTK (human)): 3.6%; kinase still bound, per cent of control (CDK19 (human)): 100%; kinase still bound, per cent of control (SRPK2 (human)): 100%; kinase still bound, per cent of control (PHKG1 (human)): 7.7%; kinase still bound, per cent of control (PRKG2 (human)): 100%; kinase still bound, per cent of control (MYLK (human)): 100%; kinase still bound, per cent of control (PAK4 (human)): 100%; kinase still bound, per cent of control (MAP4K1 (human)): 34%; kinase still bound, per cent of control (MAP4K2 (human)): 100%; kinase still bound, per cent of control (DCLK3 (human)): 0.35%; kinase still bound, per cent of control (NLK (human)): 100%; kinase still bound, per cent of control (FGFR1 (human)): 10%; kinase still bound, per cent of control (STK32B (human)): 100%; kinase still bound, per cent of control (MYLK2 (human)): 100%; kinase still bound, per cent of control (MAP3K12 (human)): 100%; kinase still bound, per cent of control (PRKG1 (human)): 100%; kinase still bound, per cent of control (AKT2 (human)): 100%; kinase still bound, per cent of control (CAMK1D (human)): 27%
100% | 100% | 100% | 100% | 100% | 100% | 0% | 100% | 100% | 100% | 100% | 100% | 100% | 100% | 100% | 100% | 100% | 100% | 100% | COc1cc(C(=O)NC2CCN(C)CC2)ccc1Nc1ncc2c(n1)N(C1CCCC1)CCC(=O)N2C(C)C | 100% | kinase still bound, per cent of control (HCK (human)): 100%; kinase still bound, per cent of control (PTK2B (human)): 100%; kinase still bound, per cent of control (LTK (human)): 100%; kinase still bound, per cent of control (CDK19 (human)): 100%; kinase still bound, per cent of control (SRPK2 (human)): 100%; kinase still bound, per cent of control (PHKG1 (human)): 100%; kinase still bound, per cent of control (PRKG2 (human)): 100%; kinase still bound, per cent of control (MYLK (human)): 100%; kinase still bound, per cent of control (PAK4 (human)): 100%; kinase still bound, per cent of control (MAP4K1 (human)): 100%; kinase still bound, per cent of control (MAP4K2 (human)): 100%; kinase still bound, per cent of control (DCLK3 (human)): 100%; kinase still bound, per cent of control (NLK (human)): 100%; kinase still bound, per cent of control (FGFR1 (human)): 100%; kinase still bound, per cent of control (STK32B (human)): 100%; kinase still bound, per cent of control (MYLK2 (human)): 100%; kinase still bound, per cent of control (MAP3K12 (human)): 100%; kinase still bound, per cent of control (PRKG1 (human)): 100%; kinase still bound, per cent of control (AKT2 (human)): 100%; kinase still bound, per cent of control (CAMK1D (human)): 100%
